Assay results taken from US10638757B2, “Formulation systems for antimicrobial glycolipids” (IMD Natural Solutions GmbH, priority 2016, dated 2020).
“Also recorded” adds a separate entry of the source.

Assays:
[1] = Influence of the additives on the MIC of a mixture of antimicrobial glycolipids (qualitative); format: cell-based; conditions: additive 1 mg/ml
From the text: In addition, the influence of the additives on the MIC of a mixture of antimicrobial glycolipids is described qualitatively.

[2] = Screening of additives as formulation stabilizers in combination with a mixture of antimicrobial glycolipids in water based formulations (turbidity, qualitative overview)
Protocol: As to identify formulation stabilizer a screening was conducted in which additives typically used in food, cosmetic or medical applications were combined with a mixture of antimicrobial glycolipids in a water based formulation. A rather high concentration of 1000 mg/l for the formulation enhancing agents was used as to not miss potential effects whereas the mixture of antimicrobial glycolipids was applied in typical use concentrations, i.e. 5, 10 and 25 μg/ml.
Portions of about 50 mL each for two beverages. “Gerolsteiner Orangenlimonade” (turbid orange lemonade, de-gassed; cloudy beverage) and “REWE Apfelsaft” (clear apple juice, sterile filtered; clear beverage) as well as for 10 mM citrate buffer is water (pH 3.0), were mixed each with aliquots of a mixture of antimicrobial glycolipids and the respective additives as to establish for each individually screened additive three combinations of concentrations (1000 μg/ml (with few exceptions as listed below) additive with 5, 10 and 25 μg/ml mixture of antimicrobial glycolipids, respectively); three controls with neither adding a mixture of antimicrobial glycolipids nor additive were run in parallel.
The necessary aliquots of a mixture of antimicrobial glycolipids were transferred from an aqueous stock solution containing 1 mg/ml mixture of antimicrobial glycolipids into the nine test solutions prepared for each additive.
The necessary aliquots of additives were transferred directly into the 50 mL portions.
For measurement of the turbidity the turbidity infrared device AL250T-IR from […]® was used. It was measured at three time points: day 0, 3, 7. All test samples were stored and handled at room temperature.

[3] = Visual control of compatibility (turbidity, particles, precipitate) of beverages containing mixture of antimicrobial glycolipids with or without formulation stabilizer
Protocol: All experiments done and reported in duplicate.
Portions of about 50 mL each for the two beverages, “Gerolstetner Orangenlimonade” (turbid orange lemonade, de-gassed; cloudy beverage) and “REWE Apfelsaft” (clear apple juice, sterile filtered; clear beverage), were mixed with aliquots of a mixture of antimicrobial glycolipids and alpha-cyclodextrin as to establish the depicted nine combinations of concentrations (4-2 to 4-4 and 4-6 to 4-11, respectively); two control solutions with neither adding a mixture of antimicrobial glycolipids nor alpha-cyclodextrin were run in parallel (4-1 and 4-5, respectively).
However, for the concentration of 10 μg/ml of mixture of antimicrobial glycolipids three combination with alpha-cyclodextrin, 25 (6-1, 6-2, 6-9, 6-10, 6-17, 6-18), 75 (6-3, 6-4, 6-11, 6-12, 6-19, 6-20) and 100 μg/ml (6-5, 6-6, 6-13, 6-14, 6-21, 6-22) and for the concentration of 25 μg/ml of mixture of antimicrobial glycolipids only 100 μg/ml alpha-cyclodextrin (6-7, 6-8, 6-15, 6-16, 6-23, 6-24) was used all with two test points, respectively.
2×50 mL portion of the four solutions in the Erlenmeyer flasks were poured into clear and sterile polystyrol conical tubes and sealed for investigation of stability and compatibility of such beverages at three different temperatures (6/20/40° C.) each, resulting in four tubes per temperature and beverage. Such 24 tubes were stored for seven days and observed at day 0, 3 and 7 by measurement of turbidity as well as by optical inspection. A control solution without adding any components was run in parallel.
Portions of about 50 mL each for the three beverages, “Gerolsteiner Orangenlimonade” (orange lemonade, de-gassed, cloudy beverage), “Kastell Zitronensprudel” (citrus lemonade, sterile filtered, clear beverage), and “REWE Apfelsaft” (clear apple juice, sterile filtered, clear beverage), were mixed with aliquots of a mixture of antimicrobial glycolipids as to establish the nine test solutions; three control solutions without adding a mixture of antimicrobial glycolipids were ran in parallel: […]

[4] = Comparison of alpha-cyclodextrin with Polysorbate 60: practicability in application in beverages and reliability in use; conditions: compared with polysorbates
From the text: The preferred formulation stabilizers polysorbates and cyclodextrins have been further investigated towards their practicability in application in beverages as well as their reliability in use.

[5] = additive 1 mg/ml, independent of glycolipid mixture

O=C(O)CN(CCN(CC(=O)O)CC(=O)O)CC(=O)O [EDTA]
Effect on MIC [1]: Impr.

polyoxyethylene-(20)-sorbitane monostearate [Polysorbate 60]
Effect of additive itself on water based product [2, 5]: Not compatible with apple juice.

Sorbitan monostearate
Effect of additive itself on water based product ([2]; additive 0.1 mg/ml): Weakly soluble

OC[C@H]1O[C@@H]2O[C@H]3[C@H](O)[C@@H](O)[C@@H](O[C@H]4[C@H](O)[C@@H](O)[C@@H](O[C@H]5[C@H](O)[C@@H](O)[C@@H](O[C@H]6[C@H](O)[C@@H](O)[C@@H](O[C@H]7[C@H](O)[C@@H](O)[C@@H](O[C@H]8[C@H](O)[C@@H](O)[C@@H](O[C@H]9[C@H](O)[C@@H](O)[C@@H](O[C@H]1[C@H](O)[C@H]2O)O[C@@H]9CO)O[C@@H]8CO)O[C@@H]7CO)O[C@@H]6CO)O[C@@H]5CO)O[C@@H]4CO)O[C@@H]3CO [gamma cyclodextrin]
beneficial effects as formulation stabilizer for antimicrobial glycolipids [3]: less pronounced beneficial effects

polyoxyethylene-(20)-sorbitane monolaurate [Polysorbate 20]
Effect of additive itself on water based product [2, 5]: Not compatible with apple juice.

polyoxyethylene-(20)-sorbitane monooleate [Polysorbate 80]
Effect of additive itself on water based product [2, 5]: Increase of turbidity; also recorded: Not compatible with apple juice

OC[C@H]1O[C@@H]2O[C@H]3[C@H](O)[C@@H](O)[C@@H](O[C@H]4[C@H](O)[C@@H](O)[C@@H](O[C@H]5[C@H](O)[C@@H](O)[C@@H](O[C@H]6[C@H](O)[C@@H](O)[C@@H](O[C@H]7[C@H](O)[C@@H](O)[C@@H](O[C@H]1[C@H](O)[C@H]2O)O[C@@H]7CO)O[C@@H]6CO)O[C@@H]5CO)O[C@@H]4CO)O[C@@H]3CO [alpha-cyclodextrin]
overall rating as broadly applicable and reliable formulation stabilizer [4]: superior
alpha-cyclodextrin concentration avoiding lack of compatibility ([3]; 10 μg/ml mixture of antimicrobial glycolipids in apple juice at 4° C.): 75 µg/mL
alpha-cyclodextrin concentration needed to avoid lack of compatibility ([3]; 10 μg/ml mixture of antimicrobial glycolipids in apple juice at 40° C.): 100 µg/mL
duration of improvement of compatibility ([3]; alpha-cyclodextrin with 10 μg/ml mixture of antimicrobial glycolipids, apple juice): > 28 days
